Experiment: xn = mol fraction of the nth substance listed
Conditions: 101.3 kPa, Liquid

N#Cc1ccccc1 [benzonitrile] + Cc1ccccc1C
Conditions | excess molar heat capacity, 298.15 K [J/K/mol] | mass density, 298.15 K [kg/m3] | mass density, 308.15 K [kg/m3]
x1 = 0.0394 | 0.448 | – | –
x1 = 0.0781 | 0.829 | – | –
x1 = 0.0815 | – | 884.98 | 875.72
x1 = 0.1262 | – | 890.21 | 881
x1 = 0.1398 | 1.273 | – | –
x1 = 0.1604 | – | 894.21 | 884.95
x1 = 0.2299 | 1.689 | – | –
x1 = 0.2579 | – | 905.68 | 896.47
x1 = 0.2803 | 1.799 | – | –
x1 = 0.3687 | 1.875 | – | –
x1 = 0.4054 | – | 923.32 | 914.01
x1 = 0.4391 | 1.792 | – | –
x1 = 0.496 | – | 934.4 | 925.13
x1 = 0.5361 | – | 939.32 | 929.98
x1 = 0.5364 | 1.592 | – | –
x1 = 0.611 | 1.376 | – | –
x1 = 0.6558 | – | 954.37 | 945.1
x1 = 0.6924 | – | 959.03 | 949.64
x1 = 0.7003 | 1.11 | – | –
x1 = 0.7684 | 0.826 | – | –
x1 = 0.8727 | 0.479 | – | –
x1 = 0.876 | – | 983.2 | 973.86
x1 = 0.9031 | – | 986.86 | 977.39
x1 = 0.9314 | 0.242 | – | –
x1 = 0.9608 | – | 994.84 | 985.42
x1 = 1 | – | 1000.25 | 990.67

CCc1ccccc1 [ethylbenzene] + N#Cc1ccccc1
x2 = 0
Conditions | mass density [kg/m3]
298.15 K | 862.41
308.15 K | 852.72

CC(C)c1ccccc1 [isopropylbenzene] + N#Cc1ccccc1
298.15 K, Flow calorimetry
Conditions | excess molar heat capacity [J/K/mol]
x2 = 0.0812 | 1.087
x2 = 0.1147 | 1.448
x2 = 0.2052 | 2.23
x2 = 0.3131 | 2.763
x2 = 0.3691 | 2.935
x2 = 0.4488 | 2.929
x2 = 0.5194 | 2.919
x2 = 0.6256 | 2.511
x2 = 0.6997 | 2.226
x2 = 0.8003 | 1.545
x2 = 0.9038 | 0.825
x2 = 0.9407 | 0.527

mass density [kg/m3]
Conditions | 298.15 K | 308.15 K
x2 = 0 | 857.41 | 848.26
x2 = 0.0581 | 864.33 | 855.15
x2 = 0.0865 | 867.75 | 858.59
x2 = 0.2036 | 882.15 | 872.93
x2 = 0.2835 | 892.28 | 883.09
x2 = 0.3445 | 900.22 | 891.02
x2 = 0.3887 | 906.07 | 896.85
x2 = 0.4445 | 913.59 | 904.41
x2 = 0.5627 | 930.2 | 920.94
x2 = 0.6557 | 943.85 | 934.41
x2 = 0.7271 | 954.72 | 945.3
x2 = 0.8102 | 967.92 | 958.51
x2 = 0.9017 | 983.11 | 973.75
